Experiments:
Type in all cases: biochemical
[1] = molecular target: T1, Rhizoupus oryzae lipase ROL (Rhizopus oryzae, UniProt P61872); experiment: Hydrolytic activity of surfactant-treated lipase ROL using pNPP as substrate; details: surfactant 10 mM, protein 0.2 mg·mL^−1
T1 construct: purchased Sigma-Aldrich Co., Ltd
Source text: (§1) (1) Determination of Hydrolytic Activity of the Lipase Using p-Nitrophenyl Palmitate (pNPP) as Substrate
(§2) Hydrolysis of pNPP catalyzed by lipase generates p-nitrophenol and palmitic acid. p-nitrophenol appears yellow in the buffer at pH 8.0 with the maximum absorption peak at 410 nm. Determination of hydrolytic activity can be achieved by measuring the absorbance at 410 nm.
(§3) The substrate solution A: 50 mmol·L^−1 sodium phosphate buffer (pH 8.0) containing 1.16 g·L^−1 sodium deoxycholate and 0.56 g·L^−1 arabic gum. Substrate solution B: 0.015 g pNPP is dissolved in 5 mL isopropyl alcohol. Substrate solution A and substrate solution B are mixed then stored for use afterwards.
(§4) Termination solution: 40 g·L^−1 NaOH, 93.05 g·L^−1 EDTA sodium. Add 62 uL termination solution to the reaction mixture when stopping the reaction.
(§5) Add 0.1 mL appropriately diluted enzyme solution, which is substituted by inactivated enzyme solution as the control, to 2.4 mL substrate solution above, incubate the mixture at 40° C. for 2 min and measure the absorbance at 410 nm.
(§6) one hydrolytic activity unit is defined as the amount of enzyme that catalyzes the formation of 1 μmol of p-nitrophenol in 1 minute at 40° C.
(§7) enzyme activity (U·mL^−1)=(V×A410×10^6)/(ε×t×V′) Calculation equation: […]
(§8) Specific activity: the activity of lipase per milligram of total protein in the lipase preparation. […]
(§9) Commercial lipase ROL was purchased from Sigma-Aldrich Co., Ltd. ROL is a non-immobilized lipase. Dissolve the ROL powder in water and centrifuge to obtain the supernatant containing the ROL lipase that would be regulated to improve its ester synthesis activity by adjusting the final protein concentration to 0.2 mg·mL^−1 and adding surfactants to the final concentration of 10 mM.
(§10) Commercial lipase ROL was purchased from Sigma-Aldrich Co., Ltd. and is a non-immobilized lipase. Dissolve the ROL powder in water, centrifuge to obtain the supernatant and treat the supernatant with different concentrations of surfactant LPC14 (the final protein concentration was 0.2 mg·mL^−1).

[2] = molecular target: T1, Rhizoupus oryzae lipase ROL; experiment: Ester synthesis activity of surfactant-treated lyophilized lipase ROL by GC analysis; details: surfactant 10 mM, protein 0.2 mg·mL^−1
Protocol: (§11) (2) Determination of Ester Synthesis Activity of the Lipase by GC Analysis
(§12) Substrate solution A: 48.5 mL of n-octanoic acid is dissolved in 250 mL of n-heptane in a volumetric flask.
(§13) Substrate solution B: 17.5 mL of absolute ethanol is dissolved in 250 mL of n-heptane in a volumetric flask.
(§14) Internal standard: 2-hexanol/n-heptane (35 g·L^−1).
(§15) Standard sample: 10 g of n-octanoate is dissolved in 1000 mL of n-heptane in a volumetric flask.
(§16) 1 mL substrate solution A and substrate solution B are added in a 5 mL Eppendorf tube respectively, then 20 mg lipase powder (or lyophilized powder) is added. The reaction is carried out at 40° C. and with shaking at 150 rpm for 30 min. Remove the lipase powder by centrifugation or membrane filtration. Then 0.1 mL of internal standard is added in 0.4 mL of filtrate or supernatant and mixed. Measure the content of n-octanoate in the mixture above by GC analysis.
(§17) The gas chromatograph (6820, Agilent Instruments) is equipped with a AC20 (PEG20000) capillary column and a FID detector. Nitrogen was used as the carrier gas. The oven temperature was programmed to start at 90° C. for 1 min and then be elevated to 200° C. for 5 min at 10° C.·min^−1. The injector and detector temperatures were set at 250° C.
(§18) Definition of enzyme activity: One unit of ester synthesis activity is defined as the amount of enzyme that esterifies 1 micromole of n-octanoate per min.
(§19) Specific activity: the activity of lipase per milligram of total protein in the lipase preparation.
(§20) Total recovery: the percentage of the activity after a treatment to that before the treatment
(§21) Add an equal volume of high-concentration surfactant solution into the enzyme solution. The final protein concentration was […] and the surfactant concentration was 10 mM. After mixed thoroughly, the mixture was lyophilized and kept in dry condition.
as §9, §10

[3] = molecular target: T2, Pseudomonas cepacia lipase PCL (Burkholderia cepacia, UniProt P22088); experiment: Hydrolytic activity of surfactant-treated lipase PCL using pNPP as substrate; details: protein 0.2 mg·mL^−1
T2 construct: purchased Sigma-Aldrich Co., Ltd
T2 sequence (P22088 45-364): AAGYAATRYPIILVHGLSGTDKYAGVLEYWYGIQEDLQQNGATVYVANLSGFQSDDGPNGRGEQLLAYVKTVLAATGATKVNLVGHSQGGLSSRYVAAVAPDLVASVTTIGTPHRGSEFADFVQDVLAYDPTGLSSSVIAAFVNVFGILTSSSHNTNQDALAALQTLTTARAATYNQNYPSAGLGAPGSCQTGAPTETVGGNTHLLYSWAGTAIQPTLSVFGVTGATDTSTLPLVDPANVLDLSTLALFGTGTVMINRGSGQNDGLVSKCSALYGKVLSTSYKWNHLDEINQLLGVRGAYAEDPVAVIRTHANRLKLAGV
Source text: as §1, §2, §3, §4, §5, §6, §7, §8
(§22) Commercial lipase PCL was purchased from Sigma-Aldrich Co., Ltd. PCL is a non-immobilized lipase. Dissolve the PCL powder in water and centrifuge to obtain the supernatant containing the PCL lipase that would be regulated to improve the ester synthesis activity by adjusting the final protein concentration to 0.2 mg·mL^−1 and adding surfactants to the final concentration of 10 mM.
(§23) Commercial lipase PCL was purchased from Sigma-Aldrich Co., Ltd. and is a non-immobilized lipase. Dissolve the PCL powder in water, centrifuge to obtain the supernatant and treat the supernatant with different concentrations of surfactant DDM (the final protein concentration was 0.2 mg·mL^−1).

[4] = molecular target: T3, Candida antarctica lipase CALB (Moesziomyces antarcticus, UniProt P41365); experiment: Hydrolytic activity of surfactant-treated lipase CALB using pNPP as substrate; details: protein 0.12 mg·mL^−1
T3 construct: purchased Sigma-Aldrich Co., Ltd
T3 sequence (P41365 26-342): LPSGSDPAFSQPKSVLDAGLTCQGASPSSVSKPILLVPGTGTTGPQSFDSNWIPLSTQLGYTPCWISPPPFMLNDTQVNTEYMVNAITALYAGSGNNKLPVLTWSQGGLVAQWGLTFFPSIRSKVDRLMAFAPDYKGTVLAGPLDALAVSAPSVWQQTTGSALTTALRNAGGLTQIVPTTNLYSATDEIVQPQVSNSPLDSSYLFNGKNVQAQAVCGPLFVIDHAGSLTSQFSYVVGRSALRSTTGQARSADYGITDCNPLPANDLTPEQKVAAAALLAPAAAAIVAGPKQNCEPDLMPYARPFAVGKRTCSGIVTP
Source text: as §1, §2, §3, §4, §5, §6, §7, §8
(§24) Commercial lipase CALB was purchased from Sigma-Aldrich Co., Ltd. CALB is a non-immobilized lipase. Dissolve the CALB powder in water and centrifuge to obtain the supernatant containing the CALB lipase that would be regulated to improve the ester synthesis activity by adjusting the final protein concentration to 0.12 mg·mL^−1 and adding surfactants to the final concentration of 10 mM.
(§25) Commercial lipase CALB was purchased from Sigma-Aldrich Co., Ltd. and is a non-immobilized lipase. Dissolve the CALB powder in water, centrifuge to obtain the supernatant and treat the supernatant with different concentrations of surfactant DDM (the final protein concentration was 0.12 mg·mL^−1).

[5] = molecular target: T3, Candida antarctica lipase CALB; experiment: Ester synthesis activity of surfactant-treated lyophilized lipase CALB by GC analysis; details: protein 0.12 mg·mL^−1
Protocol: as §11, §12, §13, §14, §15, §16, §17, §18, §19, §20, §21, §24, §25

[6] = test system: Rhizopus chinensis lipase r27RCL; experiment: Hydrolytic activity of surfactant-treated lipase r27RCL using pNPP as substrate; details: surfactant 10 mM, protein 0.2 mg·mL^−1
Source text: as §1, §2, §3, §4, §5, §6, §7, §8
(§26) Commercial lipase r27RCL was purchased from Jiangsu Yiming Biological Technology Co., Ltd, which has high hydrolytic activity and low ester synthesis activity. Dissolve the r27RCL powder in water and centrifuge to obtain the supernatant containing the r27RCL lipase to adjust the ester synthesis activity (the final protein concentration was 0.2 mg·mL^−1 and the final concentration of surfactant was 10 mM, which is between 0.1×CMC^˜200×CMC of the different surfactants in Table 1).
(§27) Commercial lipase r27RCL was purchased from Jiangsu Yiming Biological Technology Co., Ltd. r27RCL is a lipase with high hydrolytic activity but low ester synthesis activity. Dissolve the r27RCL powder in water, centrifuge to obtain the supernatant and treat the supernatant with different concentrations of surfactant LPC14 (the final protein concentration was 0.2 mg·mL^−1).

[7] = molecular target: T2, Pseudomonas cepacia lipase PCL; experiment: Ester synthesis activity of surfactant-treated lyophilized lipase PCL by GC analysis; details: protein 0.2 mg·mL^−1
Protocol: as §11, §12, §13, §14, §15, §16, §17, §18, §19, §20, §21, §22, §23

[8] = test system: Rhizopus chinensis lipase r27RCL; experiment: Ester synthesis activity of surfactant-treated lyophilized lipase r27RCL by GC analysis; details: surfactant 10 mM, protein 0.2 mg·mL^−1
Protocol: as §11, §12, §13, §14, §15, §16, §17, §18, §19, §20, §21, §26, §27

[9] = surfactant concentration 0.1 x CMC
[10] = surfactant concentration 1 x CMC
[11] = surfactant concentration 10 x CMC
[12] = surfactant concentration 100 x CMC

T1 sequence (P61872 96-392): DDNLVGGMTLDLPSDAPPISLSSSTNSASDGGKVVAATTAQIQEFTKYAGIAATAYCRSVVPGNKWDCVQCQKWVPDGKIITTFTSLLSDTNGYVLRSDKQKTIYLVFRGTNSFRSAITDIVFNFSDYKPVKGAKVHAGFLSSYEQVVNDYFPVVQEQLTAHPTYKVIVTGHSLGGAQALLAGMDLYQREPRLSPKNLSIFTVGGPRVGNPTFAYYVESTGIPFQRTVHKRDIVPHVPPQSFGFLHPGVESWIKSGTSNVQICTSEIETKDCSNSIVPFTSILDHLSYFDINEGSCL

CCCCCCCCCCCCO[C@@H]1O[C@H](CO)[C@@H](O[C@H]2O[C@H](CO)[C@@H](O)[C@H](O)[C@H]2O)[C@H](O)[C@H]1O [DDM, n-dodecyl-ß-D-maltopyranoside]
Hydrolytic activity, Specific activity [1]: 42.7 U · mg^−1
Hydrolytic activity, Total recovery [1]: 116%
Ester synthesis activity, Specific activity [2]: 2.8 U · mg^−1
Hydrolytic activity, Specific activity ([3]; surfactant 10 mM): 327.7 U · mg^−1
Hydrolytic activity, Total recovery ([3]; surfactant 10 mM): 111%
Hydrolytic activity, Specific activity [3, 9]: 499.5 U · mg^−1
Hydrolytic activity, Total recovery [3, 9]: 106%
Hydrolytic activity, Specific activity [3, 10]: 434.7 U · mg^−1
Hydrolytic activity, Total recovery [3, 10]: 99%
Hydrolytic activity, Specific activity [3, 11]: 756.7 U · mg^−1
Hydrolytic activity, Total recovery [3, 11]: 114%
Hydrolytic activity, Specific activity [3, 12]: 773.5 U · mg^−1
Hydrolytic activity, Total recovery [3, 12]: 246%
Hydrolytic activity, Specific activity ([4]; surfactant 10 mM): 0 U · mg^−1
Hydrolytic activity, Total recovery ([4]; surfactant 10 mM): 0%
Hydrolytic activity, Specific activity [4, 9]: 2.1 U · mg^−1
Hydrolytic activity, Total recovery [4, 9]: 45%
Hydrolytic activity, Specific activity [4, 10]: 3.0 U · mg^−1
Hydrolytic activity, Total recovery [4, 10]: 75%
Hydrolytic activity, Specific activity [4, 11]: 0.7 U · mg^−1
Hydrolytic activity, Total recovery [4, 11]: 10%
Hydrolytic activity, Specific activity [4, 12]: 0 U · mg^−1
Hydrolytic activity, Total recovery [4, 12]: 0%
Ester synthesis activity, Specific activity ([5]; surfactant 10 mM): 101.9 U · mg^−1
Ester synthesis activity, Specific activity [5, 9]: 4.0 U · mg^−1
Ester synthesis activity, Total recovery [5, 9]: 12%
Ester synthesis activity, Specific activity [5, 10]: 14.3 U · mg^−1
Ester synthesis activity, Total recovery [5, 10]: 50%
Ester synthesis activity, Specific activity [5, 11]: 37.3 U · mg^−1
Ester synthesis activity, Total recovery [5, 11]: 73%
Ester synthesis activity, Specific activity [5, 12]: 32.6 U · mg^−1
Ester synthesis activity, Total recovery [5, 12]: 189%
Hydrolytic activity, Specific activity [6]: 135.0 U · mg^−1
Hydrolytic activity, Total recovery [6]: 94%
Ester synthesis activity, Specific activity ([7]; surfactant 10 mM): 55.6 U · mg^−1
Ester synthesis activity, Specific activity [7, 9]: 3.2 U · mg^−1
Ester synthesis activity, Total recovery [7, 9]: 58%
Ester synthesis activity, Specific activity [7, 10]: 2.9 U · mg^−1
Ester synthesis activity, Total recovery [7, 10]: 57%
Ester synthesis activity, Specific activity [7, 11]: 20.0 U · mg^−1
Ester synthesis activity, Total recovery [7, 11]: 260%
Ester synthesis activity, Specific activity [7, 12]: 101.6 U · mg^−1
Ester synthesis activity, Specific activity [8]: 31.4 U · mg^−1

CCCCCCCCCCCCCCCC[N+](C)(C)C.[Br-] [CTAB, hexadecyl trimethyl ammonium bromide]
Hydrolytic activity, Specific activity [1]: 0 U · mg^−1
Hydrolytic activity, Total recovery [1]: 0%
Ester synthesis activity, Specific activity [2]: 0 U · mg^−1
Ester synthesis activity, Total recovery [2]: 0%
Hydrolytic activity, Specific activity ([3]; surfactant 10 mM): 75.5 U · mg^−1
Hydrolytic activity, Total recovery ([3]; surfactant 10 mM): 29%
Hydrolytic activity, Specific activity ([4]; surfactant 10 mM): 0 U · mg^−1
Hydrolytic activity, Total recovery ([4]; surfactant 10 mM): 0%
Ester synthesis activity, Specific activity ([5]; surfactant 10 mM): 36.6 U · mg^−1
Ester synthesis activity, Total recovery ([5]; surfactant 10 mM): 300%
Hydrolytic activity, Specific activity [6]: 0 U · mg^−1
Hydrolytic activity, Total recovery [6]: 0%
Ester synthesis activity, Specific activity ([7]; surfactant 10 mM): 0 U · mg^−1
Ester synthesis activity, Total recovery ([7]; surfactant 10 mM): 0%
Ester synthesis activity, Specific activity [8]: 0 U · mg^−1
Ester synthesis activity, Total recovery [8]: 0%
